28 compounds from patent US20220135591A1, “HETEROCYCLIC COMPOUNDS AS INHIBITORS OF MONOACYLGLYCEROL LIPASE (MAGL)” (Hoffmann-La Roche Inc., priority 2019, published 2022) can be followed below.

A value given as a limit tells only on which side of the number the result lay.

This experiment deals with T1, MAGL (Homo sapiens, UniProt Q99685).
T1 sequence (Q99685 1-303): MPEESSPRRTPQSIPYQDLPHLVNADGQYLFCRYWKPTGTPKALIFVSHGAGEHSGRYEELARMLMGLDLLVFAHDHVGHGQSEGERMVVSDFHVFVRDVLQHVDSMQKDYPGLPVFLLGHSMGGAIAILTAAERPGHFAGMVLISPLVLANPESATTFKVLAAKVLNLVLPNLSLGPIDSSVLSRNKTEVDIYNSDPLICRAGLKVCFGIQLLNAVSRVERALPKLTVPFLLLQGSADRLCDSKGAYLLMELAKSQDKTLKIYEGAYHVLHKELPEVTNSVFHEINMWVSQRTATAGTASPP
Description: 2-AG assay: MAGL inhibitory activity by hydrolysis of 2-arachidonoylglycerol to arachidonic acid, mass spectrometry. The settings on record: 2-AG assay (values marked [b]). It is filed as biochemical. Put shortly: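 Hydrolysis of 8 μM 2-arachidonoylglycerol by […] was run for 30 min at RT after a 15 min compound preincubation, in Tris/EDTA/Tween buffer. Test compounds spanned […]. The product was measured by online SPE-MS/MS (transitions 303.1→259.1 and 311.1→267.0), and activity was derived from the arachidonic acid/d8-arachidonic acid signal ratio.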

As to `COc1cc(C(=O)N2CCN(c3nc4nc(C)ccc4o3)CC2)ccc1-c1cn(CC(C)(C)C)nn1` [Example 239, (3-methoxy-4-(1-neopentyl-1H-1,2,3-triazol-4-yl)phenyl)(4-(5-methyloxazolo[4,5-b]pyridin-2-yl)piperazin-1-yl)methanone], the half-maximal inhibitory concentration (IC50) stood at 13 nM.

Turning to `COc1cc(C(=O)N2CCN(c3nc4nc(C)ccc4o3)CC2)ccc1-c1cnn(CC(C)(C)C)n1` [Example 240, (3-methoxy-4-(2-neopentyl-2H-1,2,3-triazol-4-yl)phenyl)(4-(5-methyloxazolo[4,5-b]pyridin-2-yl)piperazin-1-yl)methanone], the IC50 worked out at 2 nM.

`CC(C)(C)Cn1cc(-c2ncc(C(=O)N3CCN(c4nc5nc(Cl)ccc5o4)CC3)cc2F)nn1` [Example 241, (4-(5-chlorooxazolo[4,5-b]pyridin-2-yl)piperazin-1-yl)(5-fluoro-6-(1-neopentyl-1H-1,2,3-triazol-4-yl)pyridin-3-yl)methanone] displayed an IC50 of 27 nM.

In turn, `CC(C)(C)Cn1nncc1-c1ncc(C(=O)N2CCN(c3nc4nc(Cl)ccc4o3)CC2)cc1F` [Example 242, (4-(5-chlorooxazolo[4,5-b]pyridin-2-yl)piperazin-1-yl)(5-fluoro-6-(1-neopentyl-1H-1,2,3-triazol-5-yl)pyridin-3-yl)methanone] came in with a half-inhibitory concentration (IC50) of 8410 nM.

`CC(C)(C)Cn1ncc(-c2ncc(C(=O)N3CCN(c4nc5nc(Cl)ccc5o4)CC3)cc2F)n1` [Example 243, (4-(5-chlorooxazolo[4,5-b]pyridin-2-yl)piperazin-1-yl)(5-fluoro-6-(2-neopentyl-2H-1,2,3-triazol-4-yl)pyridin-3-yl)methanone] displayed an IC50 of 25 nM.

The compound `Cc1ccc2oc(N3CCN(C(=O)c4cnc(-c5cn(CC(C)(C)C)nn5)c(F)c4)CC3)nc2n1` [Example 244, (5-fluoro-6-(1-neopentyl-1H-1,2,3-triazol-4-yl)pyridin-3-yl)(4-(5-methyloxazolo[4,5-b]pyridin-2-yl)piperazin-1-yl)methanone] gave an IC50 of 50 nM.

`Cc1ccc2oc(N3CCN(C(=O)c4cnc(-c5cnn(CC(C)(C)C)n5)c(F)c4)CC3)nc2n1` [Example 245, (5-fluoro-6-(2-neopentyl-2H-1,2,3-triazol-4-yl)pyridin-3-yl)(4-(5-methyloxazolo[4,5-b]pyridin-2-yl)piperazin-1-yl)methanone] registered a half-maximal inhibitory concentration (IC50) of 57 nM.

In turn, `Cc1ccc2oc(N3CCN(C(=O)c4cnc(-c5cnnn5CC(C)(C)C)c(F)c4)CC3)nc2n1` [Example 246, (5-fluoro-6-(1-neopentyl-1H-1,2,3-triazol-5-yl)pyridin-3-yl)(4-(5-methyloxazolo[4,5-b]pyridin-2-yl)piperazin-1-yl)methanone] displayed an IC50 of 1300 nM.

`Cc1cc(C(=O)N2CCN(c3nc4nc(Cl)ccc4o3)CC2)cnc1-c1cnn(CC(C)(C)C)c1` [Example 247, [4-(5-chloro-[1,3]oxazolo[4,5-b]pyridin-2-yl)piperazin-1-yl]-[6-[1-(2,2-dimethylpropyl)pyrazol-4-yl]-5-methylpyridin-3-yl]methanone] returned a concentration for half-maximal inhibition (IC50) of 7 nM.

`Cc1ccc2oc(N3CCN(C(=O)c4cnc(-c5cnn(CC(C)(C)C)c5)c(C)c4)CC3)nc2n1` [Example 248, [6-[1-(2,2-dimethylpropyl)pyrazol-4-yl]-5-methylpyridin-3-yl]-[4-(5-methyl-[1,3]oxazolo[4,5-b]pyridin-2-yl)piperazin-1-yl]methanone] gave an IC50 of 14 nM.

With `O=C(N1CCN(c2nc3nc(Cl)ccc3o2)CC1)N1CC(C#Cc2c(Cl)cccc2Cl)C1` [Example 249, (4-(5-chlorooxazolo[4,5-b]pyridin-2-yl)piperazin-1-yl)(3-((2,6-dichlorophenyl)ethynyl)azetidin-1-yl)methanone], half-maximal inhibition (IC50) was put at 22 nM.

For `O=C(N1CCN(c2nc3nc(Cl)ccc3o2)CC1)N1CC(C#Cc2ccc(F)cc2Cl)C1` [Example 250, [3-[2-(2-chloro-4-fluorophenyl)ethynyl]azetidin-1-yl]-[4-(5-chloro-[1,3]oxazolo[4,5-b]pyridin-2-yl)piperazin-1-yl]methanone], inhibition was half-maximal at 25 nM (IC50).

Turning to `Cc1ccc2oc(N3CCN(C(=O)N4CC(COc5ccc(F)cc5Cl)C4)CC3)nc2n1` [Example 252, [3-[(2-chloro-4-fluorophenoxy)methyl]azetidin-1-yl]-[4-(5-methyl-[1,3]oxazolo[4,5-b]pyridin-2-yl)piperazin-1-yl]methanone], the IC50 came to 1240 nM.

As for `O=C(NC1CN(C(=O)N2CCN(c3nc4nc(Cl)ccc4o3)CC2)C1)c1ccc(F)cc1Cl` [Example 253, 2-chloro-N-[1-[4-(5-chloro-[1,3]oxazolo[4,5-b]pyridin-2-yl)piperazine-1-carbonyl]azetidin-3-yl]-4-fluorobenzamide], the IC50 was ≥ 12500 nM.

`Cc1ccc2oc(N3CCN(C(=O)N4CC(NC(=O)c5ccc(F)cc5Cl)C4)CC3)nc2n1` [Example 254, 2-chloro-4-fluoro-N-[1-[4-(5-methyl-[1,3]oxazolo[4,5-b]pyridin-2-yl)piperazine-1-carbonyl]azetidin-3-yl]benzamide]: the IC50 was ≥ 12500 nM.

As to `O=C(Nc1ccc(F)cc1Cl)C1CN(C(=O)N2CCN(c3nc4nc(Cl)ccc4o3)CC2)C1` [Example 255, N-(2-chloro-4-fluorophenyl)-1-[4-(5-chloro-[1,3]oxazolo[4,5-b]pyridin-2-yl)piperazine-1-carbonyl]azetidine-3-carboxamide], the concentration for half-maximal inhibition (IC50) is ≥ 12500 nM.

Turning to `Cc1ccc2oc(N3CCN(C(=O)N4CC(C(=O)Nc5ccc(F)cc5Cl)C4)CC3)nc2n1` [Example 256, N-(2-chloro-4-fluorophenyl)-1-[4-(5-methyl-[1,3]oxazolo[4,5-b]pyridin-2-yl)piperazine-1-carbonyl]azetidine-3-carboxamide], the IC50 was ≥ 12500 nM.

`Cc1cc(C(=O)N2CCN(c3nc4nc(Cl)ccc4o3)CC2)ccc1-c1cn(C(C)(C)C)nn1` [Example 257, (4-(1-(tert-butyl)-1H-1,2,3-triazol-4-yl)-3-methylphenyl)(4-(5-chlorooxazolo[4,5-b]pyridin-2-yl)piperazin-1-yl)methanone] yielded an IC50 of 58 nM.

Compound `COC(C)(C)Cn1cc(-c2ccc(C(=O)N3CCN(c4nc5nc(Cl)ccc5o4)CC3)cc2)nn1` [Example 258, [4-(5-chlorooxazolo[4,5-b]pyridin-2-yl)piperazin-1-yl]-[4-[1-(2-methoxy-2-methyl-propyl)triazol-4-yl]phenyl]methanone] gave a concentration for half-maximal inhibition (IC50) of 31 nM.

As to `CC(C)Cc1nnc(-c2ccc(C(=O)N3CCN(c4nc5nc(Cl)ccc5o4)CC3)cc2)o1` [Example 267, (4-(5-chlorooxazolo[4,5-b]pyridin-2-yl)piperazin-1-yl)(4-(5-isobutyl-1,3,4-oxadiazol-2-yl)phenyl)methanone], the midpoint of inhibition, the IC50, lay at 69 nM.

`CC(C)(C)Cn1cc(-c2ccc(C(=O)N3CCN(c4nc5nc(Cl)ccc5o4)CC3)cc2C(F)(F)F)nn1` [Example 268, (4-(5-chlorooxazolo[4,5-b]pyridin-2-yl)piperazin-1-yl)(4-(1-neopentyl-1H-1,2,3-triazol-4-yl)-3-(trifluoromethyl)phenyl)methanone] yielded a concentration for half-maximal inhibition (IC50) of 4 nM.

In turn, `CC(C)(C)Cn1ncc(-c2ccc(C(=O)N3CCN(c4nc5nc(Cl)ccc5o4)CC3)cc2C(F)(F)F)n1` [Example 269, (4-(5-chlorooxazolo[4,5-b]pyridin-2-yl)piperazin-1-yl)(4-(2-neopentyl-2H-1,2,3-triazol-4-yl)-3-(trifluoromethyl)phenyl)methanone] had an IC50 of 6 nM.

In the case of `CC(C)(C)Cn1nncc1-c1ccc(C(=O)N2CCN(c3nc4nc(Cl)ccc4o3)CC2)cc1C(F)(F)F` [Example 270, (4-(5-chlorooxazolo[4,5-b]pyridin-2-yl)piperazin-1-yl)(4-(1-neopentyl-1H-1,2,3-triazol-5-yl)-3-(trifluoromethyl)phenyl)methanone], the concentration for half-maximal inhibition (IC50) was found to be 323 nM.

`Cc1cc(C(=O)N2CCN(c3nc4nc(Cl)ccc4o3)CC2)cnc1-c1cn(CC(C)(C)C)nn1` [Example 271, (4-(5-chlorooxazolo[4,5-b]pyridin-2-yl)piperazin-1-yl)(5-methyl-6-(1-neopentyl-1H-1,2,3-triazol-4-yl)pyridin-3-yl)methanone] yielded a half-inhibitory concentration (IC50) of 74 nM.

With `Cc1cc(C(=O)N2CCN(c3nc4nc(Cl)ccc4o3)CC2)cnc1-c1cnn(CC(C)(C)C)n1` [Example 272, (4-(5-chlorooxazolo[4,5-b]pyridin-2-yl)piperazin-1-yl)(5-methyl-6-(2-neopentyl-2H-1,2,3-triazol-4-yl)pyridin-3-yl)methanone], it took 9 nM to reach half-maximal inhibition (IC50).

In turn, `C[C@@H]1CN(C(=O)c2ccc(-c3cn(CC(C)(C)C)nn3)cc2)CCN1c1nc2nc(Cl)ccc2o1` [Example 273, [(3R)-4-(5-chlorooxazolo[4,5-b]pyridin-2-yl)-3-methyl-piperazin-1-yl]-[4-[1-(2,2-dimethylpropyl)triazol-4-yl]phenyl]methanone] had a concentration for half-maximal inhibition (IC50) of 20 nM.

As to `C[C@H]1CN(C(=O)c2ccc(-c3cn(CC(C)(C)C)nn3)cc2)CCN1c1nc2nc(Cl)ccc2o1` [Example 274, [(3S)-4-(5-chlorooxazolo[4,5-b]pyridin-2-yl)-3-methyl-piperazin-1-yl]-[4-[1-(2,2-dimethylpropyl)triazol-4-yl]phenyl]methanone], the concentration for half-maximal inhibition (IC50) was 137 nM.

Regarding `Cc1cc(C(=O)N2CCN(c3nc4nc(Cl)ccc4o3)CC2)ccc1-c1nnc(CC(C)C)o1` [Example 275, [4-(5-chlorooxazolo[4,5-b]pyridin-2-yl)piperazin-1-yl]-[4-(5-isobutyl-1,3,4-oxadiazol-2-yl)-3-methyl-phenyl]methanone], the half-maximal inhibitory concentration (IC50) stood at 26 nM.
